≈ marks a conversion by molar mass, not a printed value.
Assays:
the cells = conditions: Chen, Planta Med. 60 (1994), cited from earlier work; for Effect on cell proliferation: compounds obtained through extraction; for Wound healing properties / healing effects: Ecuadorian sap
[1] = system: MSSA and MRSA (Staphylococcus aureus); assay: MIC, in vitro assay of MSSA and MRSA (2-fold microdilution); format: cell-based; conditions: for MIC: Staphylococcus aureus
[2] = system: MSSA and MRSA (Staphylococcus aureus); assay: MBC, in vitro assay of MSSA and MRSA; format: cell-based
S. pyogenes = assay: MIC against S. pyogenes (Erythromycin and Tetracycline resistant strains); format: cell-based; conditions: Streptococcus pyogenes, antibiotic screening
Procedure: Tables 14 and 15 show an assay whose setup is same as what was used for screening S. aureus and P. aeruginosa (i.e. 2-fold microdilution). The 20 strains of S. pyogenes assayed were selected from the two rounds of antibiotic screening to identify Erythromycin and Tetracycline resistant strains. […] For this feasibility study, AB-101 Lot 1 and Lot 2 was used. P. aeruginosa ATCC 27853 was tested as a positive control for AB-101 activity.

For `Oc1cc(O)c2c(c1)O[C@H](c1cc(O)c(O)c(O)c1)[C@H](O)C2` [Epigallocatechin], the “Effect on cell proliferation” value (the cells) is given as “slightly stimulating”.
For `Oc1cc(O)c2c(c1)O[C@H](c1cc(O)c(O)c(O)c1)[C@@H](O)C2` [Gallocatechin], the “Effect on cell proliferation” value (the cells) is given as “slightly stimulating”.
In the case of `C/C(=C\C(=O)OCCCCCCCCC(=O)O)C[C@@H]1OC[C@H](C[C@@H]2O[C@H]2[C@@H](C)[C@H](C)O)[C@@H](O)[C@H]1O` [Mupirocin], the MIC ([1]; strain 1674606, MupirocinR, MSSA) was > 256 µg/mL, the MIC ([1]; strain 1674607, MupirocinR, MRSA) was > 256 µg/mL and the MIC ([1]; strain CDC 227, MupirocinS, MRSA) was 0.25 to 0.5 µg/mL (≈ 0.499 to 0.999 µM). The MIC ([1]; strain CDC 462, MupirocinS, MSSA) was ≤ 0.25 µg/mL, the MIC ([1]; strain CDC 464, MupirocinS, MSSA) was ≤ 0.25 µg/mL and the MIC ([1]; strain CDC 484, MupirocinS, MSSA) was ≤ 0.25 µg/mL. The MIC ([1]; strain CDC 485, MupirocinS, MSSA) was ≤ 0.25 µg/mL.
In the case of `COc1ccc2c(=O)oc3c(OC)cc(CCN(C)C)c4c(=O)oc1c2c34` [Taspine], the “Wound healing properties / healing effects” value (the cells) is listed as “little healing effects”, the “Activity against MSSA and MRSA (MBC)” value ([2]; purified extract of taspine) is listed as “does not have activity” and the “MBC (% relative to amount in AB-101)” value ([2]; strain ATCC 29213, QC control) is listed as >50 % relative to amount in AB-101. For the same compound, the “Activity against MSSA and MRSA (MIC)” value ([1]; purified extract of taspine, highest concentration tested 50% relative to AB-101 = 10 μg/mL) was “does not have activity” and the “MIC (% relative to amount in AB-101)” value ([1]; strain ATCC 29213, QC control, 50% = 10 μg/mL taspine) was >50 % relative to amount in AB-101.
Compound `CN[C@H](CC(C)C)C(=O)N[C@H]1C(=O)N[C@@H](CC(N)=O)C(=O)N[C@H]2C(=O)N[C@H]3C(=O)N[C@H](C(=O)N[C@H](C(=O)O)c4cc(O)cc(O)c4-c4cc3ccc4O)[C@H](O)c3ccc(c(Cl)c3)Oc3cc2cc(c3O[C@@H]2O[C@H](CO)[C@@H](O)[C@H](O)[C@H]2O[C@H]2C[C@](C)(N)[C@H](O)[C@H](C)O2)Oc2ccc(cc2Cl)[C@H]1O` [Vancomycin] has an MIC (S. pyogenes; S. pyogenes strain 1744264) of 0.5 µg/mL (≈ 0.345 µM), an MIC (S. pyogenes; S. pyogenes strain 1744265) of 8 µg/mL (≈ 5.52 µM) and an MIC (S. pyogenes; S. pyogenes strain 1744271) of 0.5 µg/mL (≈ 0.345 µM). It also gave an MIC (S. pyogenes; S. pyogenes strain 1744272) of 1 µg/mL (≈ 0.69 µM), an MIC (S. pyogenes; S. pyogenes strain 1744275) of 0.25 to 0.5 µg/mL (≈ 0.173 to 0.345 µM) and an MIC (S. pyogenes; S. pyogenes strain 1744277) of 4 µg/mL (≈ 2.76 µM). For the same compound, the MIC (S. pyogenes; S. pyogenes strain 1744285) was 0.5 µg/mL (≈ 0.345 µM), the MIC (S. pyogenes; S. pyogenes strain 2065754) was 0.5 µg/mL (≈ 0.345 µM) and the MIC (S. pyogenes; S. pyogenes strain 2065755) was 0.5 µg/mL (≈ 0.345 µM). The MIC (S. pyogenes; S. pyogenes strain 2065756) was 0.5 µg/mL (≈ 0.345 µM), the MIC (S. pyogenes; S. pyogenes strain 2065757) was 0.5 µg/mL (≈ 0.345 µM) and the MIC (S. pyogenes; S. pyogenes strain 2065759) was 0.5 µg/mL (≈ 0.345 µM). It also gave an MIC (S. pyogenes; S. pyogenes strain 2065760) of 0.5 µg/mL (≈ 0.345 µM), an MIC (S. pyogenes; S. pyogenes strain 2065761) of 0.5 µg/mL (≈ 0.345 µM) and an MIC (S. pyogenes; S. pyogenes strain 2065762) of 0.5 µg/mL (≈ 0.345 µM). It also gave an MIC (S. pyogenes; S. pyogenes strain 2065763) of 0.5 µg/mL (≈ 0.345 µM), an MIC (S. pyogenes; S. pyogenes strain 2065765) of 2 to 4 µg/mL (≈ 1.38 to 2.76 µM) and an MIC (S. pyogenes; S. pyogenes strain 20658748) of 0.25 to 0.5 µg/mL (≈ 0.173 to 0.345 µM). The MIC (S. pyogenes; S. pyogenes strain 20658749) was 0.5 µg/mL (≈ 0.345 µM) and the MIC (S. pyogenes; S. pyogenes strain 20658750) was 0.5 µg/mL (≈ 0.345 µM).
For `COc1ccc([C@H]2Oc3c(OC)cc(CCCO)cc3[C@@H]2CO)cc1OC` [dimethylcedrusin], the “Wound healing properties / healing effects” value (the cells) is given as “little healing effects”.
In the case of Catechin, the “Effect on cell proliferation” value (the cells) is given as “little effect”.
